Source: US6417159B1 (Queen's University at Kingston, priority 1996, dated 2002)
Entries after “also recorded” stand apart in the source; their conditions may differ.

Tests used:
ED8 chick DRG neurons = assay: NGF-mediated neurite growth by ED8 chick DRG sensory neurons; type: cell-based
PC12^nnr5 cells [1] = assay: NGF-mediated neurite growth by PC12nnr5 cells; type: cell-based, rat; details: absence or presence of R3 peptide
Experimental: PC12 cells or PC12^nnr5 cells (Loeb et al., 1991) were seeded on poly-D-lysine-coated (0.1 mg·ml^−1, overnight) 96-well microculture dishes (Falcon) at approximately 800 cells per well with RPMI with 10% fetal calf serum. Peptides were added to replicate wells 48 hours before, or at the time of, addition of NGF. NGF was prepared by the method of Mobley et al. (1976) and used at 1-2 nM. Other additives were diluted at least 100-fold and added to the wells as described. At various times following incubation at 37° C., 5% CO2, wells were scored for neurite-bearing cells by serial counting of representative circumferences of each well.
A Leitz Diavert inverted microscope with phase optics was used to score neurite growth. For both PC12 cells and sensory neurons, a neurite was scored as such if its calibre from origin to terminal was approximately the same and the length was equal to or greater than 1.5 cell body diameters.

[2] = Precipitation out of aqueous solution; type: physicochemical
PC12 cells = assay: Acid phosphatase assay of cell survival, PC12 cells; type: cell-based, rat; details: PC12 (high-TrkA), serum-free conditions
Experimental: (§1) This is a colorimetric assay which measures the lysosomal enzyme acid phosphatase to determine cell number (Connolly et al., 1986) modified by Ueda et al. (1994) for use with cultured neuronal cells. Medium was removed gently from PC12 or PC12^nnr5 cells cultured in 96 well plates and well were washed once with 200 μl PBS. Then 100 μl of buffer containing 0.1M sodium acetate pH 5.5, 0.1% TRITON™ X-100, and 10 mM p-nitrophenyl phosphate (Sigma 104 phosphatase substrate) was added to each well. Plates were placed in a 37° C., 5% CO2 incubator for 3 hours. The reaction was stopped by the addition of 10 μl/well of 1N sodium hydroxide and the colour development measured at 405 nm using a microplate reader (Titertek). The first column on each plate contained no cells (buffer only) and was used as a blank. The relationship between cell number and enzyme activity was linear over the range 1000 to 15,000 cells.
(§2) To exclude the possibility that the effects of R3 on neurite growth in the experiments described above were indirect and mediated by an influence on cell survival, PC12 and PC12^nnr5 cells were exposed to serum free conditions in the absence and presences of NGF, and in the absence and presence of R3. […] Nor was there any difference in NGF-mediated survival whether R3 exposure occurred before or at the same time as NGF exposure. […]

PC12^nnr5 cells [3] = assay: Acid phosphatase assay of cell survival, PC12nnr5 cells; type: cell-based, rat; details: PC12nnr5 (low-TrkA), serum-free conditions
Experimental: as §1, §2

LDALLAALRRIQR [R3]
% of Control Response DRG (ED8 chick DRG neurons; (peptide with NGF − NGF alone)/(R3 with NGF − NGF alone) ×100, scored at 43, 44 and 48 hours, M ± SEM, n = 3 assays): 100 ± 16% | Effect on NGF-mediated neurite growth, co-incubation, in words (ED8 chick DRG neurons; ED8 chick DRG neurons, 10 μM R3): enhancing effect; also recorded: markedly increased the response to NGF between 4 and 8 hours | Neurite growth in PC12nnr5 cells with NGF, in words (PC12^nnr5 cells [1]): no effects on neurite growth | Concentration at which the peptide tended to precipitate out of aqueous solution with time [2]: ≥ 50 µM | Influence on NGF-mediated cell survival, in words (PC12 cells): no influence on NGF-mediated survival | Influence on NGF-mediated cell survival, in words (PC12^nnr5 cells [3]): no influence on NGF-mediated survival
